{"source": "patent US11466044B2", "about": "(WAYNE STATE UNIVERSITY, priority 2017, dated 2022)", "key": {"[1]": {"test_system": "A1555G mutant mitochondrial ribosome (human chimeric)", "assay": "in-vitro translation assay, human chimeric ribosomes, A1555G mutant mitochondrial decoding site", "format": "biochemical", "excerpt": "(§1) The antiribosomal activity of these compounds was investigated with cell-free translation assays using both wild type bacterial ribosomes and hybrid ribosomes carrying eukaryotic decoding A sites enabling the prediction of selectivity."}, "[2]": {"test_system": "mitochondrial ribosome (human chimeric)", "format": "biochemical", "excerpt": "as §1"}, "[3]": {"test_system": "cytosolic ribosome (human chimeric)", "format": "biochemical", "excerpt": "as §1"}, "[4]": {"test_system": "wild type bacterial ribosomes", "assay": "in-vitro translation assay, bacterial ribosomes", "format": "biochemical", "conditions": "Mycobacterium smegmatis ribosomes; read-out: IC50 Bacterial", "excerpt": "as §1"}, "[5]": {"test_system": "E coli wild type", "assay": "MIC by broth microdilution, wild type E coli", "format": "cell-based"}, "[6]": {"test_system": "MRSA", "assay": "MIC by broth microdilution, MRSA isolates", "format": "cell-based"}, "[7]": {"test_system": "M. smegmatis SZ380", "assay": "MIC by broth microdilution, M. smegmatis"}, "[8]": {"test_system": "Acinetobacter baumannii pittii AG225", "assay": "MIC by broth microdilution, Acinetobacter baumannii", "format": "cell-based", "conditions": "strain AG225 Acinetobacter baumannii pittii"}, "[9]": {"test_system": "E coli carrying specific resistance determinants", "assay": "MIC by broth microdilution, E coli carrying specific resistance determinants", "format": "cell-based"}, "[10]": {"test_system": "P aeruginosa", "assay": "MIC by broth microdilution, P aeruginosa isolates", "format": "cell-based, Pseudomonas aeruginosa", "conditions": "strain AG220 Pseudomonas aeruginosa ATCC27853"}, "[11]": {"test_system": "Klebsiella pneumonia AG215", "assay": "MIC by broth microdilution, Klebsiella pneumonia", "format": "cell-based", "conditions": "strain AG215 Klebsiella pneumonia"}}, "note": "Entries after “also recorded” stand apart in the source; their conditions may differ.", "data": [{"smiles": "NCC1OC(OC2C(CO)OC(OC3C(O)C(N)CC(N)C3OC3OC4C(O)COC4C(O)C3N)C2O)C(N)C(O)C1O", "note": "(stereo not shown) [DC204]", "values": [{"measurement": "IC50", "setting": "[1]; human mitochondrial decoding site with A1555G point mutation, read-out: IC50 Mitoch. A1555G", "result": 117, "unit": "µM"}, {"measurement": "IC50", "setting": "[2]; ribosomes with a human mitochondrial decoding site, read-out: IC50 Mitoch.", "result": 131, "unit": "µM"}, {"measurement": "IC50", "setting": "[3]; ribosomes with a human cytosolic decoding site, read-out: IC50 Cytosolic", "result": 276, "unit": "µM"}, {"measurement": "IC50", "setting": "[4]", "result": 0.2, "unit": "µM"}, {"measurement": "MIC AG001 E. coli WT", "setting": "[5]; clinical isolate AG001, WT", "result": 16, "unit": "µg/mL"}, {"measurement": "MIC AG038 MRSA", "setting": "[6]; clinical isolate AG038", "result": 8, "unit": "µg/mL"}]}, {"smiles": "CC(=O)NC1C(OC2C(N)CC(N)C(O)C2OC2OC(CO)C(OC3OC(CN)C(O)C(O)C3N)C2O)OC(CN)C(O)C1O", "note": "(stereo not shown) [Compound 183]", "values": [{"measurement": "Selectivity for Binding to the Bacterial Ribosome over the Mutant Mitochondrial Ribosome", "setting": "[1]; Table 3 (Example 3)", "result": 5.2}, {"measurement": "Selectivity for Binding to the Bacterial Ribosome over the Mitochondrial Ribosome", "setting": "[2]; Table 3 (Example 3)", "result": 18}, {"measurement": "Selectivity for Binding to the Bacterial Ribosome over the Cytosolic Ribosome", "setting": "[3]; Table 3 (Example 3)", "result": 28}, {"measurement": "MIC M. smegmatis SZ380 WT", "setting": "[7]; SZ380 WT, Table 5 (Example 3)", "result": 8, "unit": "µg/mL"}, {"measurement": "MIC SZ380 M. smegmatis", "setting": "[7]; strain SZ380 Mycobacterium smegmatis", "result": 8, "unit": "µg/mL"}, {"measurement": "MIC AG225 A. baumannii", "setting": "[8]", "result": ">32", "unit": "µg/mL"}, {"measurement": "MIC E. coli AG106 AAC(2′)-Ia", "setting": "[9]; AG106 AAC(2′)-Ia, Table 5 (Example 3)", "result": 128, "unit": "µg/mL"}, {"measurement": "MIC E coli AG106 AAC(2′)", "setting": "[9]; AG106 AAC(2′), Table 2 (Example 3)", "result": 128, "unit": "µg/mL"}, {"measurement": "MIC E. coli pGB2armA armA", "setting": "[9]; pGB2armA armA, Table 5 (Example 3)", "result": "128-256 μg/ml"}, {"measurement": "MIC AG220 P. aerugin", "setting": "[10]", "result": ">32", "unit": "µg/mL"}, {"measurement": "MIC E coli AG006 Wild type", "setting": "[5]; AG006 Wild type, Table 2 (Example 3)", "result": 64, "unit": "µg/mL"}, {"measurement": "MIC E coli AG104 Wild type", "setting": "[5]; AG104 Wild type, Table 2 (Example 3)", "result": 128, "unit": "µg/mL"}, {"measurement": "antibacterial activity, in words", "setting": "[5]; MRSA and E coli, compared with the parent compound", "result": "very substantial loss of activity; also recorded: very significantly reduced activity"}, {"measurement": "MIC E. coli WT", "setting": "[5]; WT, Table 5 (Example 3)", "result": 128, "unit": "µg/mL"}, {"measurement": "MIC E coli AG001", "setting": "[5]; clinical isolate AG001, Table 1 (Example 3)", "result": ">32", "unit": "µg/mL"}, {"measurement": "MIC E coli AG003", "setting": "[5]; clinical isolate AG003, Table 1 (Example 3)", "result": ">32", "unit": "µg/mL"}, {"measurement": "MIC E coli AG055", "setting": "[5]; clinical isolate AG055, Table 1 (Example 3)", "result": ">32", "unit": "µg/mL"}, {"measurement": "MIC AG212 E. coli", "setting": "[5]; strain AG212 E. coli (ATCC25922)", "result": ">32", "unit": "µg/mL"}, {"measurement": "MIC MRSA AG038", "setting": "[6]; clinical isolate AG038, Table 1 (Example 3)", "result": ">32", "unit": "µg/mL"}, {"measurement": "MIC MRSA AG039", "setting": "[6]; clinical isolate AG039, Table 1 (Example 3)", "result": ">32", "unit": "µg/mL"}, {"measurement": "MIC MRSA AG042", "setting": "[6]; clinical isolate AG042, Table 1 (Example 3)", "result": ">32", "unit": "µg/mL"}, {"measurement": "MIC AG215 K. pneumon", "setting": "[11]", "result": ">32", "unit": "µg/mL"}]}]}
